Data as given in patent publication US20250177339A1, “Methods for Treating Tauopathy” (BioJiva LLC, priority 2020, published 2025).
“Also recorded” adds a separate entry of the source.

What was measured:
SROS MSCs [1] = assay: Rate of lipid peroxidation (BODIPY C11) in SROS/PSP MSCs; assay type: cell-based, human; conditions: 72-hour incubation; for rate of lipid peroxidation (LPO), in words: SROS/PSP MSCs, BODIPY C11
Protocol: (§1) The effect of D2-Lin on mesenchymal stem cells derived from patients with SROS was assessed using non-deuterated Lin as a control. MSC preparations from bone marrow aspirates from control subjects were compared to 3 subjects with SROS, following protocols described in Hill S., et al., Free Radic. Biol. Med. (2012) 53:893-906; and Cotticelli M G., et al., Redox Biol. (2013) 1:398-404.
(§2) LPO has been implicated as an early and pivotal factor in SROS. Specifically, increased levels of n-6 PUFA oxidation products such as 4-HNE were reported, as a direct consequence of the LPO chain reaction. Accordingly, the difference in basal MMP and ROS generation between control and the 3 cell lines of SROS MSCs was associated with increased rates of LPO, as detected by the LPO-specific probe, BODIPY C11.
(§3) MSC preparations from BM were obtained from control subjects and from the PSP subjects following previously described protocols. In short, MSCs were isolated from BM aspirates seeding 50,000 mononucleated cells/cm2 in αMEM (Thermo Fisher Scientific, Waltham, MA, USA) supplemented with 10% fetal bovine serum (FBS; Thermo Fisher Scientific), in T75 flasks. The cultures were incubated at 37° C., 20% O2, 5% CO2. Medium changes were performed twice a week. Two weeks after initial seeding, primary MSC colonies were detached with a 10-minute incubation at 37° C. with TrypLE Select Enzyme (Thermo Fisher Scientific) and replated at 4000 cells/cm^2 in the same medium. MSC identity was previously assessed. Subsequent passages were performed following the same steps. Passage 4-6 MSCs were used for all experiments. […]
(§4) Lipid peroxidation was measured using confocal microscopy (Zeiss 710 LSM with an integrated META detection system). The rate of lipid peroxidation was measured using C11-BODIPY 581/591 ([…]; Molecular probes) which was excited by the 488 and 543 nm laser line and fluorescence measured using a band-pass filter from 505 to 550 nm and 560 nm long-pass filter (40× oil-objective). […]

SROS MSCs [2] = assay: Glutathione level (monochlorobimane) in SROS/PSP MSCs; assay type: cell-based, human; conditions: for glutathione (GSH) level, in words: SROS/PSP MSCs, MCB intensity
Protocol: as §1
Glutathione-related machinery is the major mechanism involved with slowing down the inhibition/propagation the LPO chain as well as mopping up the toxic end products of LPO. Consumption of the endogenous antioxidant glutathione is an indirect measure of oxidative stress.
as §3
For assessments of glutathione levels, the PSP-MSCs cultures were incubated with 50 μM monochlorobimane (MCB) (Molecular Probes, Invitrogen) for 40 minutes in HEPES buffered salt solution prior to imaging. Cells were then washed with HEPES buffered salt solution and images of the fluorescence of the MCB-GSH were acquired using a Zeiss 710 CLSM with excitation at 405 nm and emission at 435-485 nm. Mitochondrial ROS generation rate was assessed using MitoTracker® Red CM-H2XRos (Thermo Fisher Scientific) which accumulates into mitochondria upon oxidation. The fluorescence measurement was obtained by excitation with 561 nm laser and emission detected above 580 nm. Mitochondrial membrane potential (ΔΨm) was assessed using 25 nM tetramethylrhodamine methyl ester (TMRM, Thermo Fisher Scientific) at 560 nm excitation and fluorescence was measured above 580 nm. Z-stack images were collected and the fluorescence intensity of TMRM was analyzed using Zen software (Zeiss). […]
Glutathione levels were measured using MCB. […]

SROS-MSCs = assay: Mitochondrial membrane potential (fluorescent indicator, TMRM) in SROS MSCs; assay type: cell-based, human; conditions: SROS cells from SROS patients; incubation for 72 hours
Protocol: as §1
(§5) MMP is an important indicator of mitochondrial health and is typically kept at […] values (100-140 mV). A long-lasting drop or rise of normal MMP levels may induce loss of cell viability and various pathologies. ROS and LPO levels are directly linked to MMP, and increase exponentially at MMP>140 mV. […]
(§6) MSC preparations from BM were obtained from control subjects and from the PSP subjects following previously described protocols. […] MSC identity was previously assessed. […]
(§7) For assessments of glutathione levels, the PSP-MSCs cultures were incubated with 50 μM monochlorobimane (MCB) (Molecular Probes, Invitrogen) for 40 minutes in HEPES buffered salt solution prior to imaging. Cells were then washed with HEPES buffered salt solution and images of the fluorescence of the MCB-GSH were acquired using a Zeiss 710 CLSM with excitation at 405 nm and emission at 435-485 nm. […] The fluorescence measurement was obtained by excitation with 561 nm laser and emission detected above 580 nm. […]

control MSCs [3] = assay: Mitochondrial membrane potential (fluorescent indicator, TMRM) in control MSCs; assay type: cell-based, human; conditions: incubation for 72 hours
Protocol: as §1, §5, §6, §7

SROS MSCs [4] = assay: Mitochondrial shape in SROS MSCs; assay type: cell-based, human; conditions: pre-treatment
Protocol: as §1
Presynaptic terminals typically contain multiple mitochondria. Misshaped mitochondria can clog the pathways that transport them along neurons and through long axons and elaborate dendritic arbors. Mattson et al., Neuron (2009) 60:748-766. Accordingly, mitochondrial shape is another characteristic of mitochondrial health. Also, the communication pathway between ER and mitochondria through MAM is compromised in misshaped mitochondria, further disturbing protein folding, lipid metabolism, Ca^2+ homeostasis and apoptosis. Lee et al., Mol. Cells (2018) 41:1000-1007. Coincident with the improvements in MMP with D-PUFA incubation, the abnormalities of mitochondrial shape seen in SROS MSCs were improved with D-PUFA pre-treatment, resulting in more uniformly looking mitochondria.

SROS-MSC = assay: Mitochondrial DNA level (PicoGreen fluorescence in non-nuclear area) in SROS MSCs; assay type: cell-based, human; conditions: after 72 hours incubation, from 67.5% before, relative to control MSC 100%
Protocol: as §1
(§8) The number of mitochondria within the cells is regulated by the balance between mitochondrial biogenesis and mitophagy. Accordingly, for the normal maintenance of the mitochondrial balance, SROS-MSCs should activate mitochondrial biogenesis. […] Various factors, for example excessive fusion can result in a lower number of mitochondria in the cell, leading to impaired respiration, a lower production of ATP, and increased oxidative damage. Arun et al., Curr. Neuropharmacol. (2016) 14:143-154. However, after 72 hours incubation of the cells with D2-PUFAs mitochondrial DNA increased for both control and SROS MSCs.

control MSC = assay: Mitochondrial DNA level (PicoGreen fluorescence in non-nuclear area) in control MSCs; assay type: cell-based, human; conditions: after 72 hours incubation, from 100% before
Protocol: as §1, §8

control MSCs [5] = assay: Rate of lipid peroxidation (BODIPY C11) in control MSCs; assay type: cell-based, human; conditions: 72-hour incubation
Protocol: as §1, §2
as §4, with “oil-objective). Illumination intensity was kept to a minimum (0.1-0.2% of laser output) to prevent phototoxicity and the pinhole was set to give an optical slice of […].” for “oil-objective).”

[6] = system: patients diagnosed with likely PSP; assay: Progressive Supranuclear Palsy Rating Scale (PSPRS) in treated patients; assay type: in vivo, human; conditions: three PSP patients; 2.88 g BID; after 3 months of therapy; historical decline 0.91 points/month; +/-0.23 SEM
Protocol: (§9) Three patients diagnosed with likely PSP underwent baseline assessment using the 28-item Progressive Supranuclear Palsy Rating Scale (PSPRS) and the Unified Parkinson's Disease Rating Scale (UPDRS). They were then treated with D2-Lin (2.88 g BID; 5.76 g total daily dose) and observed for disease progression. The second patient had their dose increased (2.88 g TID; 8.64 g total daily dose) after the first year of treatment. During the treatment period, scores in the 2 rating scales were determined every 3 months. Pharmacokinetic (PK) sampling was performed at month 3. These analytes included plasma and RBC membrane levels of (D2-LA) and its centrally active metabolite D2-AA.
(§10) The three patients were 2 males ([…]) and one person each of whom had pre-treatment symptom duration of 6 years and 3 years for the two males and 2 years for the person. The baseline PSPRS for the two males was 17 and 12 respectively and 13 for the person. The baseline UPDRS for the two males was 44 and 36 respectively and 21 for the person.
(§11) After 3 months of therapy, the slope of the PSPRS changed from the historical decline of 0.91 points/month to a mean of decline of 0.16 points/month (+/−0.23 SEM). The UPDRS slope changed from an expected increase of 0.95 points/month to an average increase in score of 0.28 points/month (+/−0.41 SEM).

[7] = system: patients diagnosed with likely PSP; assay: Unified Parkinson's Disease Rating Scale (UPDRS) in treated patients; assay type: in vivo, human; conditions: three PSP patients; 2.88 g BID; after 3 months of therapy; expected increase 0.95 points/month; +/-0.41 SEM
Protocol: as §9, §10, §11

[8] = system: MSCs derived from patients with SROS; assay: Mitochondrial health (morphology, number, function) of SROS MSCs; assay type: cell-based, human; conditions: incubation for 72 hours
Protocol: as §1
These include changes in mitochondrial morphology, number, and function.

[9] = Pharmacokinetic sampling: ratio of D2-AA to AA in red blood cells of treated patients; assay type: in vivo, human
Protocol: as §9
At 3 months, the following data was collected:
At 12 months, the following data was collected:
The above results evidence that a percent ratio of 11,11-D2-AA to AA in red blood cells of about 3% is necessary to achieve therapeutic results.

% ratio of 11,11-D2-AA to AA ([9]; Patient 1, evaluated at 4 months of D2-Lin treatment) | % ratio of 11,11-D2-AA to AA ([9]; Patient 1, evaluated at 13 months of D2-Lin treatment) | % ratio of 11,11-D2-AA to AA ([9]; Patient 2, at 3 months of D2-Lin treatment) | % ratio of 11,11-D2-AA to AA ([9]; Patient 2, at 12 months of D2-Lin treatment) | % ratio of 11,11-D2-AA to AA ([9]; Patient 3, at 3 months of D2-Lin treatment) | % ratio of 11,11-D2-AA to AA ([9]; Patient 3, at 12 months of D2-Lin treatment) | SMILES | rate of lipid peroxidation (LPO), in words (SROS MSCs [1]) | glutathione levels less than those found in the D2-Lin test (SROS MSCs [2]; PSP MSCs, after incubation, compared with D2-Lin-incubated PSP MSCs) | glutathione (GSH) level, in words (SROS MSCs [2]) | mitochondrial membrane potential (MMP) (SROS-MSCs) | mitochondrial membrane potential (MMP) (control MSCs [3]) | abnormalities of mitochondrial shape (SROS MSCs [4]) | level of mitochondrial DNA (estimation of number of mitochondria) (SROS-MSC) | level of mitochondrial DNA (estimation of number of mitochondria) (control MSC) | rate of lipid peroxidation (LPO) (SROS MSCs [1]; SROS MSCs, % of control, from 161.8% before, N=8) | rate of LPO, % of the pre-treatment value (control MSCs [5]) | glutathione (GSH) level, in words (SROS MSCs [2]; listed as D2-PUFAs) | slope of the PSPRS, mean decline [6] | UPDRS slope, average increase in score [7] | mitochondrial morphology, number, and function [8]
 |  |  |  |  |  | CCCCC/C=C\C/C=C\CCCCCCCC(=O)O [H2-LA, Non-deuterated linoleic acid, reference compound] | remained elevated at over two times that of the treated levels | about 30% | remained low |  |  |  |  |  |  |  |  |  |  | 
 |  |  |  |  |  | [2H]C([2H])(/C=C\CCCCC)/C=C\CCCCCCCC(=O)O [D2-Lin, 11,11-D2-Linoleic acid] | reversed; also recorded: restored the SROS MSCs to normal levels; also recorded: returned to normal levels |  | reversed; also recorded: restored to HC levels | reduced | no effect | improved | 105.4% | 109% | 109.8% | 84.3% | significantly increased | 0.16 points/month | 0.28 points/month | restores these parameters to control MSC levels
5.9% | 10.5% | 3.3% | 6.9% | 5% | 8.6% | [2H]C([2H])(/C=C\C/C=C\C/C=C\CCCC(=O)O)/C=C\CCCCC [13,13-D2-Arachadonic acid] |  |  |  |  |  |  |  |  |  |  |  |  |  | 
